From patent publication US20080300298A1, “Honokiol Derivates For the Treatment of Proliferative Disorders” (priority 2005, published 2008)

Tests used:
IKK = biological target: T1, IKK (Homo sapiens, UniProt O14920+O15111); assay: IKK assay (immune complex kinase assay); format: cell-based
T1 construct: 200 mg of extract was immunoprecipitated with antibodies against IKKa and IKKb; endogenous in cells; host or cells: H1299 cells, whole-cell extracts, immunoprecipitated
Experimental: Honokiol inhibits TNF-induced activation of NF-kB. H1299 cells were incubated with […] honokiol for 12 h, treated with 0.1 nM TNF for the indicated times, and then analyzed for NF-kB activation by EMSA. (B) H1299 cells (2×10^6/ml) were incubated with […] honokiol for 12 h at 37° C., treated with 0.1 nM TNF for the indicated times at 37° C., and then tested for IkBa (upper panel) in cytosolic fractions by Western blot analysis. Equal protein loading was evaluated by b-actin (lower panel). (C) Honokiol blocks the phosphorylation and ubiquitination (D) of IkBaby TNF. […] To examine the effect of honokiol on the level of expression of IKK proteins, 30 mg of whole-cell extract was analyzed on 10% SDS-PAGE, electrotransferred, and immunoblotted with the indicated antibodies as described in Materials and Methods. […] Nuclear extracts were prepared and analyzed by Western blotting using antibodies against p65. […] The cytoplasmic and nuclear extracts were analyzed by Western blotting using antibodies against the phosphorylated form of p65.
IKK assay. To determine the effect of honokiol on TNF-induced IKK activation, we analyzed IKK by a method essentially as described previously (Shishodia, S., et al. 2003 Cancer Res. 63:4375-4383). […]

SVR cells = assay: apoptosis of SVR cells; format: cell-based; conditions: 18 and 48 h
Experimental: FIG. 13 illustrates the effect of honokiol and magnolol on apoptosis. The light columns represent SVR cells treated with magnolol, and the dark columns represent SVR cells treated with honokiol. The control lanes represent cells immediately after treatment compared with 18 and 48 h of treatment.

AMP kinase in PC3 cells = assay: AMPK activation (Western blot); format: cell-based, human; conditions: normoxic and hypoxic conditions
Experimental: Bharti, A. C. et al (2004) Blood 103, 3175-3184; Arbiser, J. L et al (1998) Mol. Med. 4, 376-383; Woods, A. et al (2003) Current Biology 13, 2004-2008; Shaw, R. J. et al (2004) PNAS 101, 3329-3335; Buzzai, M. et al (2005) Oncogene 24, 4165-4173). […] PC3 cells were treated with honokiol in normoxia (left) or hypoxia (right). In both cases, HIF-1a induction is dose dependent, and in the case of hypoxia, at least additive. Compounds can be tested on the p53 deficient PC3 human prostate cancer cell line, to see whether treatment results in activation of AMPK as in FIG. 20. PC3 cells can be treated with compound or vehicle for 24 hours, then proteins harvested and analyzed by Western blot for phosphorylation of the alpha subunit of AMPK, a marker of AMPK activation. In addition, phosphorylation of a substrate of AMPK, acetyl CoA carboxylase (ACC) can be monitored by Western blot.

HIF-1a in PC3 cells = assay: HIF-1a induction; format: cell-based, human; conditions: normoxia or hypoxia
Experimental: Bharti, A. C. et al (2004) Blood 103, 3175-3184; Arbiser, J. L et al (1998) Mol. Med. 4, 376-383; Woods, A. et al (2003) Current Biology 13, 2004-2008; Shaw, R. J. et al (2004) PNAS 101, 3329-3335; Buzzai, M. et al (2005) Oncogene 24, 4165-4173). […] PC3 cells were treated with honokiol in normoxia (left) or hypoxia (right). In both cases, HIF-1a induction is dose dependent, and in the case of hypoxia, at least additive.

T1 sequence (O15111 whole entry): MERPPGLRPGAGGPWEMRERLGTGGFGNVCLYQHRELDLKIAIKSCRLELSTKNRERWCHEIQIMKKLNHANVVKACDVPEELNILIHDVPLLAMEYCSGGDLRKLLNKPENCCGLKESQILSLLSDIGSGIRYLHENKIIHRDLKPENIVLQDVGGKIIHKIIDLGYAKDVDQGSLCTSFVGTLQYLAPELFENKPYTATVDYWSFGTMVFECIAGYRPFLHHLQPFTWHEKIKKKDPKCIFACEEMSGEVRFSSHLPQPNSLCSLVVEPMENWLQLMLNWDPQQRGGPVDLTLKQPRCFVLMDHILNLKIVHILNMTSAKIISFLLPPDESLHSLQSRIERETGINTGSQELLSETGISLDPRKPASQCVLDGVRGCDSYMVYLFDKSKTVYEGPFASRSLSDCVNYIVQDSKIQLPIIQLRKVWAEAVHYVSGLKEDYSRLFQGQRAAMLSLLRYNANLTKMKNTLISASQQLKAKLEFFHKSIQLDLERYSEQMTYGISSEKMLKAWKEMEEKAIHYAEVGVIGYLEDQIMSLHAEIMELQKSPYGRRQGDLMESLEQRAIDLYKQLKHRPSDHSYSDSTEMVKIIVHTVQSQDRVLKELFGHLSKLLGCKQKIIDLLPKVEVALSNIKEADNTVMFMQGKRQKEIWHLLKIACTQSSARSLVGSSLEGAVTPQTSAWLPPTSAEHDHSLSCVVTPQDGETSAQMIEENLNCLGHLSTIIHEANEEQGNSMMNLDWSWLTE
T1 sequence (O14920 whole entry): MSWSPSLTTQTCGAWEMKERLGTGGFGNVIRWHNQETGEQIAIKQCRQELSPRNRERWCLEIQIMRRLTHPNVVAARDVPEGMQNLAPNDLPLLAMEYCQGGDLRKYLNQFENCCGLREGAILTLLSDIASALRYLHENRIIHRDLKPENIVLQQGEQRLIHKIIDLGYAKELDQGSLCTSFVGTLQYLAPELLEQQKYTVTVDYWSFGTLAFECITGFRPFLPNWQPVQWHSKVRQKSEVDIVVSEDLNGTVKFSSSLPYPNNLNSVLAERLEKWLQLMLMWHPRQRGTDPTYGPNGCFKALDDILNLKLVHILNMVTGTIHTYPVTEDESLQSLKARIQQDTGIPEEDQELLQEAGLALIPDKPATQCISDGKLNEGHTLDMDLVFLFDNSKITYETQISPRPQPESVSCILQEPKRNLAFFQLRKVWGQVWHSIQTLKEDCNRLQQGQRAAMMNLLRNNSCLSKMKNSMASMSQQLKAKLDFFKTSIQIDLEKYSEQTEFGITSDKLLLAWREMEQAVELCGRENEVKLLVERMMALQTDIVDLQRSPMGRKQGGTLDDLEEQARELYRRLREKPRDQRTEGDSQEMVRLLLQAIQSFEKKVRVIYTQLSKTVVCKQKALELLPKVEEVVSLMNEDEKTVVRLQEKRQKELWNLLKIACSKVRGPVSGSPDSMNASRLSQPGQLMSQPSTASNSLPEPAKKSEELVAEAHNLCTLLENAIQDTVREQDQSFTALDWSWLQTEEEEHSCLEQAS
T1 sequence (Q9Y6K9 whole entry partner): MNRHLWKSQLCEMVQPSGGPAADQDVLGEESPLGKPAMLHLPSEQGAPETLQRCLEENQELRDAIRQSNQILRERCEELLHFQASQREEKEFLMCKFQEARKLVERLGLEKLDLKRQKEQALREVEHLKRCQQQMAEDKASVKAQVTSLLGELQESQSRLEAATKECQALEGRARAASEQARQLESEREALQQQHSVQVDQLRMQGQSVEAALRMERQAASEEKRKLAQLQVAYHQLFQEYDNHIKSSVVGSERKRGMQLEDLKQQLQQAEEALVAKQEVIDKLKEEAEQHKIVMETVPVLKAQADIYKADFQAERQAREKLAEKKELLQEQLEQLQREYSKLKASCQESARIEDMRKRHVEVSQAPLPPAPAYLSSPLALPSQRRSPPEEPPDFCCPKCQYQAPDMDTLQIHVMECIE

## C=CCc1ccc(O)c(-c2ccc(O)c(CC=C)c2)c1 [HNK, Honokiol]
IKK; cells treated with honokiol 12 h, 0.1 nM TNF
  TNF-induced IKK activation: completely suppressed TNF-induced activation of IKK
IKK; in vitro
  IKK activity in vitro (direct effect): did not directly interfere with the IKK activity
SVR cells
  induction of apoptosis compared with magnolol: more effective in the induction of apoptosis than magnolol
AMP kinase in PC3 cells
  phosphorylation (activation) of AMP kinase: increased phosphorylation (activation) of AMP kinase
HIF-1a in PC3 cells
  HIF-1a induction: activated HIF-1a in prostate cancer cells in a dose dependent manner
